Measured values as given in US5789440A, “5,6-dihydropyrone derivatives as protease inhibitors and antiviral agents” (Warner-Lambert Company, priority 1994, dated 1998).
Values after ≈ are worked out from the molar mass of the structure shown.

How the values were obtained:
[1] = test system: Streptococcus pneumonia 5V-1; assay: Antibacterial activity, microtitration dilution method; type: cell-based; settings: Streptococcus pneumoniae, 5V1, read-out: minimum inhibitory concentration (MIC)
Description: (§1) The compounds of the invention display antibacterial activity when tested by the microtitration dilution method as described in Heifetz, et al., Antimicr. Agents. & Chemoth. 6: 124 (1974) which is incorporated herein by reference.
(§2) By use of the above referenced method, the following minimum inhibitory concentration values (MICs in μg/mL) were obtained for representative compounds of the invention vs. clinically relevant gram positive pathogens which have become highly resistant to conventional therapy in recent years.

[2] = test system: Streptococcus pyogenes C203; assay: as above; type: cell-based; settings: read-out: minimum inhibitory concentration (MIC)
Description: as §1, §2

[3] = test system: Staphylococcus aureus H228; assay: as above; type: cell-based; settings: read-out: minimum inhibitory concentration (MIC)
Description: as §1, §2

[4] = test system: Staphylococcus aureus UC-76; assay: as above; type: cell-based; settings: UC76, read-out: minimum inhibitory concentration (MIC)
Description: as §1, §2

[5] = test system: Enterococcus foecalis MGH2; assay: as above; type: cell-based; settings: read-out: minimum inhibitory concentration (MIC)
Description: as §1, §2

HIV1iiib in H9 cells = assay: Antiviral activity in H9 cells (acute HIV-1 infection, reverse transcriptase assay); type: cell-based; settings: Human immunodeficiency virus 1, multiplicity of infection 0.01, 0.1% DMSO, read-out: Concentration for 50% Protection
Protocol: Using the general methods of Pauwels et al., (J. Virol. Methods, 16, 171-185, 1987) and Mann et al. (AIDS Research and Human Retroviruses, 253-255, 1989 (anti-viral assays of active HIV-1 infection were performed in the H9 cell line. Cultures were batch infected in 1 ml of RPM1 1640 media/10% fetal calf serum containing 10^5 infectious doses of HIV1iiib for an effective multiplicity of infection of 0.01. After 2 hours of viral absorption, cells were washed once and palted in 96-wellmicrotiter plates at a density of 10^4 cells per well. Test compounds were added to produce the desired concentration of drug and 0.1% DMSO in a final volume of 200 μl. Uninfected parallel cultures were maintained for XTT cytotoxicity assay at 7 days post infection. Cultures were tested for viral replication by reverse transcriptase assay at 4 and 7 days post infection.

HIV-1 Protease = biological target: T1, HIV-1 Protease (Human immunodeficiency virus type 1 group M subtype B, UniProt P04585); assay: HIV protease inhibition (undecapeptide substrate cleavage, HPLC); type: biochemical; settings: 37° C., 5 min, 40 μM substrate, pH 4.7, 2% DMSO, read-out: 50% INHIBITION CONCENTRATION
T1 construct: HIV-1 Protease; purchased Bachem Bioscience Inc
Protocol: 1.0 mM dithiothreitol (DTT) was prepared fresh daily in 0.1% polyethylene glycol (mw 8000) 80 mM NaOAc, 160 mM NaCl, 1.0 mM EDTA, and brought to pH 4.7 with HCl.
The enzyme is obtained from Bachem Bioscience Inc. The undiluted enzyme is thawed from -80° C. and diluted 50-fold with DTT buffer. The solution is always kept at 0° C. on ice water and used in the experiment within 20 minutes after thawing.
Substrate III from Bachem Bioscience Inc. is the undecapeptide H-His-Lys-Ala-Arg-Val-Leu-p-Nitrophenylalanine-Glu-Ala-Norleucine-Ser-NH2 (>97% purity). A 200 μM stock solution in DTT buffer is prepared and stored on ice. Substrate solution is prepared fresh daily.
10 mM inhibitor (I) in dimethyl sulfoxide (DMSO) is diluted to 200 μM with DTT buffer. From the 200 μM stock solution is made a 10 μM stock solution with 2% DMSO in DTT buffer. The two inhibitor solutions are used to make final [I] =100, 50, 20, 10, 5, 2, 1, 0.5 and 0 μM with 2% DMSO in DTT buffer in each reaction well (total inhibitor volume of 50 μl).
To each reaction well is added 20 μl of substrate (final concentration of 40 μM), 50 μl of inhibitor (at a concentration such that final dilution will produce the test concentration) and 20 μl of DTT buffer. The reaction plate (96 wells) is incubated at 37° C. for at least 5 minutes.
10 μl of the diluted protease is added to the reaction well while the reaction plate is shaking. Once shaken for 10 seconds, the plate is returned to the heating block at 37° C. (final reaction volume 100 μl.)
The reaction is incubated for 5 minutes at 37° C. The reaction is stopped by placing the reaction plate on the shaker and adding 20 μl of 10% trifluoroacetic acid (TFA) and shaking for 10 seconds. The amount of proteolysis is then determined by separation of noncleaved substrate and two cleaved products with reverse-phase HPLC, while measuring absorbance at 220 nm to determine the relative peak areas of the three components. The relative peak areas are used to calculate % conversion to product as a function of inhibitor concentration. The data are plotted as % Control (the ratio of % conversion in the presence and absence of inhibitor×100) versus inhibitor concentration and fitted with the equation Y=100/1+(X/IC50)^A, where IC50 is the inhibitor concentration at 50% inhibition and A is the slope of the inhibition curve.

HIV = settings: R. Nagorny et al., AIDS 7: 129-130 (1993); cited from earlier work

SMILES	MIC [1] [µg/mL]	MIC [2] [µg/mL]	MIC [3] [µg/mL]	MIC [4] [µg/mL]	MIC [5] [µg/mL]	EC50 (HIV1iiib in H9 cells) [µM]	IC50 (HIV-1 Protease) [µM]	inhibition of cell-free and cell-mediated HIV infection (in words) (HIV)
CC(C)c1ccccc1SC1=C(O)CC(CCc2ccccc2)(c2ccccc2)OC1=O (racemic) [Example 72, 5,6-Dihydro-4-hydroxy-3-(2-isopropylphenylthio)-6-phenyl-6-(2-phenylethyl)-2H-pyran-2-one]	25 (≈ 56.2 µM)	25 (≈ 56.2 µM)	25 (≈ 56.2 µM)	25 (≈ 56.2 µM)	100 (≈ 225 µM)	–	–	–
O=C1OC(CCc2ccccc2)(c2ccccc2)CC(O)=C1SCc1ccc2c(c1)OCO2 (racemic) [Example 107, 3-(Benzo[1,3]dioxol-5-ylmethylthio)-5,6-dihydro-4-hydroxy-6-phenyl-6-(2-phenylethyl)-2H-pyran-2-one]	50 (≈ 109 µM)	50 (≈ 109 µM)	50 (≈ 109 µM)	100 (≈ 217 µM)	50 (≈ 109 µM)	8	0.11	–
CC(=O)CC(c1ccccc1)c1c(O)c2ccccc2oc1=O (stereo not drawn) [Warfarin, 3-(α-acetonylbenzyl)-4-hydroxycoumarin]	–	–	–	–	–	–	–	inhibiting cell-free and cell-mediated HIV infection
